Measurements taken from patent publication US11203600B2 (Denali Therapeutics Inc., priority 2017, dated 2021).

Target: GST-hRIPK1 (8-327) (Homo sapiens (Human), UniProt Q13546)
Test: Fluorescent Polarization Binding (FP Binding) assay, RIPK1
Settings: 10 nM GST-hRIPK1 (8-327), 5 nM fluorescent-labeled ligand, RT, 30 min, mean of at least two independent experiments
Procedure, shortened: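 Compound displacement of 5 nM labelled ligand from 10 nM GST-hRIPK1 (8-327) was read as FP (531/595 nm) after 30 min at RT. Buffer: HEPES pH 7.5, NaCl, MgCl2, CHAPS, DTT, Pluronic; 1% DMSO final. IC50s were averaged over at least two independent runs.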

GST-hRIPK1 (8-327), sequence (Q13546 8-327): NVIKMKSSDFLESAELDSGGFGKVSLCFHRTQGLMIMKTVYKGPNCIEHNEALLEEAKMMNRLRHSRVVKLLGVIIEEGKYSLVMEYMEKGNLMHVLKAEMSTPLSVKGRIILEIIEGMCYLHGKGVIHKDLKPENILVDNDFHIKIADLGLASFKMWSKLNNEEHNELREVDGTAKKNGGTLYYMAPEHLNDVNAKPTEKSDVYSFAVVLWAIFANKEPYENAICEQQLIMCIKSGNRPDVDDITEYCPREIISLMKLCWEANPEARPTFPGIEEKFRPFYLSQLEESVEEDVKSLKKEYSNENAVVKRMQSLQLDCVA

**Q.** With `CC(C)(C(=O)N1CCOc2c(C#N)cncc2C1)C(F)F` [Example 29, 4-(3,3-difluoro-2,2-dimethyl-propanoyl)-3,5-dihydro-2H-pyrido[3,4-f][1,4]oxazepine-9-carbonitrile] as the molecule, how does the IC50 read?
**A.** 0.0001 to 0.1 µM

**Q.** For `N#Cc1cncc2c1OCCN(C(=O)C1(F)CCN(c3ncc(C(F)F)cn3)CC1)C2` [Example 189, 4-[1-[5-(difluoromethyl)pyrimidin-2-yl]-4-fluoro-piperidine-4-carbonyl]-3,5-dihydro-2H-pyrido[3,4-f][1,4]oxazepine-9-carbonitrile], which IC50 is on record?
**A.** 0.1 to 1 µM

**Q.** `COC1(C(=O)N2CCOc3c(F)cncc3C2)CCN(c2nccc(OCC(F)F)n2)CC1` [Example 134, [1-[4-(2,2-difluoroethoxy)pyrimidin-2-yl]-4-methoxy-4-piperidyl]-(9-fluoro-3,5-dihydro-2H-pyrido[3,4-f][1,4]oxazepin-4-yl)methanone] was tested. Which IC50 did it give?
**A.** 0.1 to 1 µM

**Q.** Which IC50 does the source give for `O=C(C1CC(F)(F)C1)N1CCOc2ccccc2C1` [Example 1, (3,3-difluorocyclobutyl)(2,3-dihydrobenzo[f][1,4]oxazepin-4(5H)-yl)methanone] here?
**A.** > 1 µM

**Q.** With `CC(C)(C(=O)N1Cc2ccccc2CCO1)C(F)F` [Example 38, 3,3-difluoro-2,2-dimethyl-1-(1,2,4,5-tetrahydro-3,2-benzoxazepin-2-yl)propan-1-one] as the molecule, how does the IC50 read?
**A.** > 1 µM

**Q.** For `CC(C)(C(=O)N1CCOc2c(C#N)cncc2C1)C1CN(c2ncc(F)cn2)C1` [Example 85, 4-[2-[1-(5-fluoropyrimidin-2-yl)azetidin-3-yl]-2-methyl-propanoyl]-3,5-dihydro-2H-pyrido[3,4-f][1,4]oxazepine-9-carbonitrile], which IC50 is on record?
**A.** 0.1 to 1 µM

**Q.** How did the IC50 turn out when `CC(C)(C(=O)N1CCOc2c(F)cccc2C1)C(F)F` [Example 13, 3,3-difluoro-1-(9-fluoro-2,3-dihydrobenzo[f][1,4]oxazepin-4(5H)-yl)-2,2-dimethylpropan-1-one] was run?
**A.** 0.0001 to 0.1 µM

**Q.** How did the IC50 turn out when `Cc1ccnc(N2CCC(F)(C(=O)N3CCOc4c(C#N)cncc4C3)CC2)n1` [Example 162, 4-[4-fluoro-1-(4-methylpyrimidin-2-yl)piperidine-4-carbonyl]-3,5-dihydro-2H-pyrido[3,4-f][1,4]oxazepine-9-carbonitrile] was run?
**A.** 0.1 to 1 µM

**Q.** Which IC50 does the source give for `CCC1(C(=O)N2CCOc3c(C#N)cncc3C2)CC1` [Example 63, 4-(1-ethylcyclopropanecarbonyl)-3,5-dihydro-2H-pyrido[3,4-f][1,4]oxazepine-9-carbonitrile] here?
**A.** 0.1 to 1 µM

**Q.** For `CC1CN(c2ncc(F)cn2)CCC1C(=O)N1CCOc2c(C#N)cncc2C1` (stereo not shown) [Example 187, 4-[1-(5-fluoropyrimidin-2-yl)-3-methyl-piperidine-4-carbonyl]-3,5-dihydro-2H-pyrido[3,4-f][1,4]oxazepine-9-carbonitrile], which IC50 is on record?
**A.** 0.0001 to 0.1 µM

**Q.** How did the IC50 turn out when `CSc1nc(N2CCC(F)(C(=O)N3CCOc4c(C#N)cncc4C3)CC2)ncc1F` [Example 126, 4-[4-fluoro-1-(5-fluoro-4-methylsulfanyl-pyrimidin-2-yl)piperidine-4-carbonyl]-3,5-dihydro-2H-pyrido[3,4-f][1,4]oxazepine-9-carbonitrile] was run?
**A.** 0.0001 to 0.1 µM

**Q.** How did the IC50 turn out when `CC1CC(C(=O)N2CCOc3c(C#N)cncc3C2)CCN1c1ncc(F)cn1` (stereo not shown) [Example 91, 4-[1-(5-fluoropyrimidin-2-yl)-2-methyl-piperidine-4-carbonyl]-3,5-dihydro-2H-pyrido[3,4-f][1,4]oxazepine-9-carbonitrile] was run?
**A.** 0.1 to 1 µM

**Q.** With `Cc1cc(C(F)(F)F)nc(N2CCC(F)(C(=O)N3CCOc4c(C#N)cncc4C3)CC2)n1` [Example 168, 4-[4-fluoro-1-[4-methyl-6-(trifluoromethyl)pyrimidin-2-yl]piperidine-4-carbonyl]-3,5-dihydro-2H-pyrido[3,4-f][1,4]oxazepine-9-carbonitrile] as the molecule, how does the IC50 read?
**A.** 0.1 to 1 µM

**Q.** With `CC(C)(C(=O)N1CCCc2ccccc2C1)C(F)F` [Example 5, 3,3-difluoro-2,2-dimethyl-1-(1,3,4,5-tetrahydro-2-benzazepin-2-yl)propan-1-one] as the molecule, how does the IC50 read?
**A.** 0.1 to 1 µM

**Q.** With `CC(C)(C(=O)N1CCOc2c(C#N)ccc(F)c2C1)C(F)F` [Example 2, 4-(3,3-difluoro-2,2-dimethyl-propanoyl)-6-fluoro-3,5-dihydro-2H-1,4-benzoxazepine-9-carbonitrile] as the molecule, how does the IC50 read?
**A.** 0.0001 to 0.1 µM

**Q.** How did the IC50 turn out when `N#Cc1cncc2c1OCCN(C(=O)C1(F)CCN(c3ncccc3F)CC1)C2` [Example 113, 4-[4-fluoro-1-(3-fluoro-2-pyridyl)piperidine-4-carbonyl]-3,5-dihydro-2H-pyrido[3,4-f][1,4]oxazepine-9-carbonitrile] was run?
**A.** 0.1 to 1 µM

**Q.** Which IC50 does the source give for `Cn1ccc2nc(N3CCC(F)(C(=O)N4CCOc5c(C#N)cncc5C4)CC3)ncc21` [Example 108, 4-[4-fluoro-1-(5-methylpyrrolo[3,2-d]pyrimidin-2-yl)piperidine-4-carbonyl]-3,5-dihydro-2H-pyrido[3,4-f][1,4]oxazepine-9-carbonitrile] here?
**A.** 0.1 to 1 µM

**Q.** How did the IC50 turn out when `N#Cc1cncc2c1OCCN(C(=O)C13CC(C1)C3)C2` [Example 44, 4-(bicyclo[1.1.1]pentane-3-carbonyl)-3,5-dihydro-2H-pyrido[3,4-f][1,4]oxazepine-9-carbonitrile] was run?
**A.** > 1 µM

**Q.** For `CCC(C)(C)C(=O)N1CCOc2ccc(F)cc2C1` [Example 32, 1-(7-fluoro-2,3,4,5-tetrahydro-1,4-benzoxazepin-4-yl)-2,2-dimethylbutan-1-one], which IC50 is on record?
**A.** 0.0001 to 0.1 µM

**Q.** With `CC1(C(=O)N2CCOc3c(C#N)cncc3C2)CCN(c2ncc(F)cn2)CC1(F)F` (stereo not shown) [Example 96, 4-[3,3-difluoro-1-(5-fluoropyrimidin-2-yl)-4-methyl-piperidine-4-carbonyl]-3,5-dihydro-2H-pyrido[3,4-f][1,4]oxazepine-9-carbonitrile] as the molecule, how does the IC50 read?
**A.** 0.0001 to 0.1 µM

Same assay, conditions: GST-hRIPK1 (8-327), mean of at least two independent experiments

**Q.** Which IC50 does the source give for `N#Cc1cncc2c1OCCN(C(=O)C1CCN(c3nccn4ncnc34)CC1F)C2` (single isomer, unassigned) [Example 301, 4-[3-Fluoro-1-([1,2,4]triazolo[1,5-a]pyrazin-8-yl)piperidine-4-carbonyl]-3,5-dihydro-2H-pyrido[3,4-f][1,4]oxazepine-9-carbonitrile] here?
**A.** 0.1 to 1 µM

**Q.** Which IC50 does the source give for `O=C(C1=CCN(c2ncc(F)cn2)CC1)N1CCOc2c(F)cncc2C1` [Example 248] here?
**A.** 0.1 to 1 µM

**Q.** With `CC(C(=O)N1CCOc2c(C#N)cncc2C1)(C(F)F)C1CC1` (single isomer, unassigned) [Example 259, 4-(2-Cyclopropyl-3,3-difluoro-2-methyl-propanoyl)-3,5-dihydro-2H-pyrido[3,4-f][1,4]oxazepine-9-carbonitrile] as the molecule, how does the IC50 read?
**A.** 0.1 to 1 µM

**Q.** `CC1(C(=O)N2CCOc3c(C#N)cncc3C2)CCN(c2ncc(F)cn2)CC1(F)F` (single isomer, unassigned) [Example 285, 4-[-3,3-Difluoro-1-(5-fluoropyrimidin-2-yl)-4-methyl-piperidine-4-carbonyl]-3,5-dihydro-2H-pyrido[3,4-f][1,4]oxazepine-9-carbonitrile] was tested. Which IC50 did it give?
**A.** 0.1 to 1 µM

**Q.** `N#Cc1cncc2c1OCCN(C(=O)C1CCN(c3nccn4ncnc34)CC1F)C2` (single isomer, unassigned) [Example 302, 4-[3-Fluoro-1-([1,2,4]triazolo[1,5-a]pyrazin-8-yl)piperidine-4-carbonyl]-3,5-dihydro-2H-pyrido[3,4-f][1,4]oxazepine-9-carbonitrile] was tested. Which IC50 did it give?
**A.** 0.0001 to 0.1 µM

**Q.** `N#Cc1cncc2c1OCCN(C(=O)C1CCN(c3ccnc4ccnn34)C[C@@H]1F)C2` (stereo partly drawn) [Example 249, 4-[(3,4)-trans-3-fluoro-1-pyrazolo[1,5-a]pyrimidin-7-yl-piperidine-4-carbonyl]-3,5-dihydro-2H-pyrido[3,4-f][1,4]oxazepine-9-carbonitrile] was tested. Which IC50 did it give?
**A.** 0.0001 to 0.1 µM

**Q.** Which IC50 does the source give for `CCC(C)(CC#N)C(=O)N1CCOc2c(C#N)cncc2C1` (single isomer, unassigned) [Example 265, 4-[2-(Cyanomethyl)-2-methyl-butanoyl]-3,5-dihydro-2H-pyrido[3,4-f][1,4]oxazepine-9-carbonitrile] here?
**A.** 0.0001 to 0.1 µM

**Q.** Which IC50 does the source give for `N#Cc1cncc2c1OCCN(C(=O)C1CCN(c3ncc(F)cn3)CC1F)C2` (single isomer, unassigned) [Example 306, 4-[3-Fluoro-1-(5-fluoropyrimidin-2-yl)piperidine-4-carbonyl]-3,5-dihydro-2H-pyrido[3,4-f][1,4]oxazepine-9-carbonitrile] here?
**A.** 0.0001 to 0.1 µM

**Q.** `C=CC(C)(C)C(=O)N1CCOc2c(C#N)cncc2C1` [Example 271, 4-(2,2-dimethylbut-3-enoyl)-3,5-dihydro-2H-pyrido[3,4-f][1,4]oxazepine-9-carbonitrile] was tested. Which IC50 did it give?
**A.** 0.0001 to 0.1 µM

**Q.** Which IC50 does the source give for `COc1nc(N2CCC(C(=O)N3CCOc4c(C#N)cncc4C3)CC2)c(F)cc1F` [Example 287, 4-[1-(3,5-difluoro-6-methoxy-2-pyridyl)piperidine-4-carbonyl]-3,5-dihydro-2H-pyrido[3,4-f][1,4]oxazepine-9-carbonitrile] here?
**A.** 0.0001 to 0.1 µM

**Q.** How did the IC50 turn out when `N#Cc1cncc2c1OCCN(C(=O)C1(F)CCN(c3nccn4ncnc34)CC1)C2` [Example 206, 4-[4-fluoro-1-([1,2,4]triazolo[1,5-a]pyrazin-8-yl)piperidine-4-carbonyl]-3,5-dihydro-2H-pyrido[3,4-f][1,4]oxazepine-9-carbonitrile] was run?
**A.** 0.0001 to 0.1 µM

**Q.** `O=C(C1CCN(c2nccn3ncnc23)C[C@@H]1F)N1CCOc2c(F)cncc2C1` (stereo partly drawn) [Example 257, (9-fluoro-3,5-dihydro-2H-pyrido[3,4-f][1,4]oxazepin-4-yl)-[(3,4)-trans-3-fluoro-1-([1,2,4]triazolo[1,5-a]pyrazin-8-yl)-4-piperidyl]methanone] was tested. Which IC50 did it give?
**A.** 0.1 to 1 µM

**Q.** With `CCC(C)(C(=O)N1CCOc2c(C#N)cncc2C1)C(F)F` (single isomer, unassigned) [Example 261, 4-(2-(Difluoromethyl)-2-methylbutanoyl)-2,3,4,5-tetrahydropyrido[3,4-f][1,4]oxazepine-9-carbonitrile] as the molecule, how does the IC50 read?
**A.** 0.0001 to 0.1 µM

**Q.** With `O=C(C1CCN(c2nccc3ncnn23)CC1(F)F)N1CCOc2c(F)cncc2C1` (stereo not shown) [Example 251, [3,3-difluoro-1-([1,2,4]triazolo[1,5-c]pyrimidin-5-yl)-4-piperidyl]-(9-fluoro-3,5-dihydro-2H-pyrido[3,4-f][1,4]oxazepin-4-yl)methanone] as the molecule, how does the IC50 read?
**A.** 0.1 to 1 µM
